Consider five compounds from patent publication US4614827A, “Method for isolating vinyl salt compounds from aqueous solutions” (Rohm GmbH, priority 1983, dated 1986).

A short description of data set [1]: Water solubility at 20° C. An excerpt: Of special interest are the salts of acrylic and methacrylic acid and also of maleic acid, fumaric acid, and itaconic acid, and more particularly the alkali metal salts, and especially the sodium, potassium, and lithium salts; the alkaline earth metal salts, and especially the magnesium, calcium, strontium, and barium salts; the salts of subgroups I and II of the periodic table, and especially the copper and zinc salts; the salts of main and subgroup IV (Ge, Sn, Pb, Ti, Zr, Hf), and especially the germanium, tin, lead, titanium, and zirconium salts; the salts of subgroup VIII (Fe, Ru, Os, Co, Rh, Ir, Ni, Pd, Pt), and especially the iron, cobalt, and nickel salts; the salts of main and subgroups V ((As, Sb, Bi, V, Nb, Ta) and of subgroup VII (Mn, Tc, Re), and especially the antimony, bismuth, vanadium, and manganese salts; and the ammonium salts, including those derived from ammonium cations of the formula [drawing 1] wherein R1 and R2 are hydrogen or an alkyl group having from 1 to 18 carbon atoms, and preferably from 1 to 5 carbon atoms, and R3 and R4 are hydrogen or an alkyl group having from 1 to 18 carbon atoms, and preferably from 1 to 6 carbon atoms, or wherein R3 and R4, optionally with inclusion of one or two further hetero atoms such as nitrogen, oxygen, or sulfur, form a five- or six-membered heterocyclic system.

A short description of data set [2]: Water solubility of spray dried product (qualitative). The format is physicochemical. An excerpt:
Clear beads, some of them vitrified, were obtained. The major portion of these ranged in size from 10 to 20 microns; the largest particles were about 80 microns. The residual moisture of the spray dried material ranged from 0.35 to 0.55 percent and the bulk density from 540 to 600 grams/liter. Higher bulk densities can be obtained by increasing the operating temperature. Because of the good water solubility of the products being dried, the spray drying apparatus can be cleaned quite easily.
Clear beads in the range of 10 to 100 microns are obtained. The residual moisture of the spray dried material is less than 0.3%.

`C=C(C)C(=O)O` [Barium dimethacrylate]: the “Water solubility at 20° C.” value in data set [1] came out at 40.5 g/salt/100 g water. Still for that read-out and setting: as for `C=C(C)C(=O)[O-].[Li+]` [Lithium methacrylate], the figure is 87.5 g/salt/100 g water; as for `C=C(C)C(=O)[O-].[K+]` [Potassium methacrylate], 101.8 g/salt/100 g water. For `C=C(C)C(=O)[O-].[Na+]` [Sodium methacrylate], the “Water solubility at 20° C.” value in data set [1] amounted to 95.3 g/salt/100 g water. The “water solubility (in words)” value in data set [2] is given as “readily water soluble”.

For the compound `C=C(C)C(=O)O` [Strontium dimethacrylate], the “Water solubility at 20° C.” value in data set [1] turned out to be 27.5 g/salt/100 g water.
